Source: US7420083B2, “Substituted aryloximes” (Wyeth, priority 2003, dated 2008)

Legend:
[1] = target: T1, recombinant human plasminogen activator inhibitor-1 (PAI-1) (Homo sapiens, UniProt P05121); test: Screening for PAI-1 inhibition (chromogenic tPA activity assay, Spectrozyme-tPA); assay type: biochemical; settings: for IC50: footnote b: IC50 determined by a modification of the Primary Screen for PAI-1 Inhibition
T1 construct: purchased Molecular Innovations, Royal Oak, Mich
Procedure: Screening for PAI-1 inhibition. Test compounds are dissolved in DMSO at a final concentration of 10 mM, then diluted 100×in physiologic buffer. The inhibitory assay is initiated by the addition of the test compound (1-100 μM final concentration, maximum DMSO concentration of 0.2%) in a pH 6.6 buffer containing 140 nM recombinant human plasminogen activator inhibitor-1 (PAI-1; Molecular Innovations, Royal Oak, Mich.). Following a 1 hour incubation at room temperature, 70 nM of recombinant human tissue plasminogen activator (tPA) is added, and the combination of the test compound, PAI-1 and tPA is incubated for an additional 30 minutes. Following the second incubation, Spectrozyme-tPA (American Diagnostica, Greenwich, Conn.), a chromogenic substrate for tPA, is added and absorbance read at 405 nm at 0 and 60 minutes. Relative PAI-1 inhibition is equal to the residual tPA activity in the presence of the test compounds and PAI-1. Control treatments include the complete inhibition of tPA by PAI-1 at the molar ratio employed (2:1), and the absence of any effect of the test compound on tPA alone.

[2] = PAI-1 inhibition at 25 μM test compound, pH 6.6 buffer, 140 nM PAI-1, 70 nM tPA

T1 sequence (P05121 24-402): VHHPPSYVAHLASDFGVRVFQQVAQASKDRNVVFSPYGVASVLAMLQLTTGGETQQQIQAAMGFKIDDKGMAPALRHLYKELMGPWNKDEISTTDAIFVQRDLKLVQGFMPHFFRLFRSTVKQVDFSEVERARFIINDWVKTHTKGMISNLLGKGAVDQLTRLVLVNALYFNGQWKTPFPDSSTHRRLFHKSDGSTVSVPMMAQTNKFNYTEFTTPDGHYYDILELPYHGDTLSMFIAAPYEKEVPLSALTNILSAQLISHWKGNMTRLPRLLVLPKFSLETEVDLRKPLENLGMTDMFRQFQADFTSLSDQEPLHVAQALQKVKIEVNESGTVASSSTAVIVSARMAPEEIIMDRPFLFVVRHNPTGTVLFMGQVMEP

inhibition at 25 µM [1, 2] | melting point | IC50 [1] | Structure (SMILES) | % Inhibition @ 25 μM [1, 2]
39% | 98.7 to 99.7 °C |  | CC(=NOCCCOc1ccc(CC(=O)O)cc1)c1ccc(C(C)(C)C)cc1 [Compound 1, (4-{3-[1-(4-tert-Butyl-phenyl)-ethylideneaminooxy]-propoxy}-phenyl)-acetic Acid] | 
30% | 148.9 to 150 °C |  | CC(=NOCc1ccc(CC(=O)O)cc1)c1ccc(C(C)(C)C)cc1 [Compound 2, {4-[1-(4-tert-Butyl-phenyl)-ethylideneaminooxymethyl]-phenyl}-acetic Acid] | 
19% | 93.3 to 96.2 °C |  | CC(C)(C)c1ccc(C=NOCc2ccc(CC(=O)O)cc2)cc1 [Compound 3, [4-(4-tert-Butyl-benzylideneaminooxymethyl]-phenyl}-acetic Acid] | 
 | 157.4 to 158.7 °C | 20.2 µM | C/C(=N\OCCOc1ccc(C(=O)O)c(O)c1)c1ccc(C(C)(C)C)cc1 [Compound 5, 4-{2-[({(E)-1-[4-(tert-Butyl)-phenyl]-ethylidene}amino)oxy]-ethoxy}-2-hydroxy-benzoic Acid] | 
33% | 161.4 to 162.7 °C |  | CC(C)(C)c1ccc(C=NOCCOc2ccc(C(=O)O)c(O)c2)cc1 [Compound 7, 4-{2-[({[4-(tert-Butyl)phenyl]methylidene}amino)oxy]ethoxy}-2-hydroxybenzoic Acid] | 
1% | 146.3 to 147.9 °C |  | CC(C)(C)c1ccc(/C=N/OCCOc2ccc(C(=O)O)c(OC(=O)c3ccc(C(F)(F)F)cc3)c2)cc1 [Compound 8, 4-{2-[({(E)-[4-(tert-Butyl)phenyl]methylidene}amino)oxy]ethoxy}-2-{[4-(trifluoromethyl)benzoyl]oxy}benzoic Acid] | 
 | 115.5 to 117.5 °C | 25.6 µM | COc1ccc(C(=O)Oc2cc(OCCO/N=C/c3ccc(C(C)(C)C)cc3)ccc2C(=O)O)cc1 [Compound 9, 4-{2-[({(E)-[4-(tert-Butyl)phenyl]methylidene}amino)oxy]ethoxy}-2-[(4-methoxybenzoyl)oxy]benzoic Acid] | 
 | 129.3 to 130.6 °C | 8.4 µM | CC(C)(C)c1ccc(/C=N/OCCOc2ccc(C(=O)O)c(OC(=O)c3ccccc3)c2)cc1 [Compound 11, 2-(Benzoyloxy)-4-{2-[({(E)-[4-(tert-butyl)phenyl]methylidene}amino)oxy]ethoxy}benzoic Acid] | 
 | 167.1 to 168.8 °C | 11.2 µM | C/C(=N\OCCOc1ccc(C(=O)O)cc1Cl)c1ccc(C(C)(C)C)cc1 [Compound 12, 4-{2-[({(E)-1-[4-(tert-Butyl)phenyl]ethylidene}amino)oxy]-ethoxy}-3-chloro-benzoic Acid] | 
34% | 142.7 to 143.9 °C |  | C/C(=N\OCCOc1ccc(C(=O)O)c(Cl)c1)c1ccc(C(C)(C)C)cc1 [Compound 13, 4-{2-[({(E)-1-[4-(tert-Butyl)phenyl]ethylidene}amino)oxy]-ethoxy}-2-chloro-benzoic Acid] | 
28% | 164.1 to 164.8 °C |  | CC(C)(C)c1ccc(C=NOCCOc2ccc(C(=O)O)c(OCc3ccc(C(F)(F)F)cc3)c2)cc1 [Compound 14, 4-{2-[({[4-(tert-Butyl)phenyl]methylidene}amino)oxy]ethoxy}-2-{[4-(trifluoromethyl)benzyl]oxy}benzoic acid] | 
42% | 101.2 to 102.1 °C |  | CC(C)(C)c1ccc(/C=N/OCCCOc2ccc(CCC(=O)O)cc2)cc1 [Compound 16, 3-(4-{3-[({(E)-[4-(tert-butyl)phenyl]methylidene}amino)oxy]propoxy}phenyl)propanoic Acid] | 
 |  |  | CC(C)(C)c1ccc(C=NOCCCOc2ccc(Cc3nnn[nH]3)cc2)cc1 [Compound 17, 4-(tert-Butyl)benzaldehyde 0-{3-[4-(1H-tetraazol-5-ylmethyl)-phenoxy]-propyl}oxime] | 35%
 | 192.3 to 193.8 °C | 18.5 µM | CC(C)(C)c1ccc(/C=N/OCCCOc2ccc(C(=O)O)c(NC(=O)c3ccc(C(C)(C)C)cc3)c2)cc1 [Compound 18, 2-{[4-(tert-Butyl)benzoyl]amino}-4-{3-[({(E)-[4-(tert-butyl)phenyl]methylidene}amino)oxy]propoxy}benzoic Acid] | 
 | 205.6 to 206.6 °C | 25.7 µM | O=C(Nc1cc(OCCCO/N=C/c2ccc(-c3ccccc3)cc2)ccc1C(=O)O)c1ccc(C(F)(F)F)cc1 [Compound 20, 4-[3-({[(1E)-1,1′-Biphenyl-4-ylmethylidene]amino}oxy)propoxy]-2-{[4-(trifluoromethyl)benzoyl]amino}benzoic Acid] | 
26% | 174.3 to 175.7 °C |  | C/C(=N\OCCCOc1ccc(C(=O)O)c(NC(=O)c2ccc(C(F)(F)F)cc2)c1)c1ccccc1 [Compound 23, 4-[3-({[(1E)-1-Phenylethylidene]amino}oxy)propoxy]-2-{[4-(trifluoromethyl)benzoyl]amino}benzoic acid] | 
24% | 170.5 to 172.5 °C |  | O=C(O)c1ccc(OCCCO/N=C/c2ccc(-c3ccccc3)cc2)cc1NC(=O)c1ccccc1C(F)(F)F [Compound 26, 4-[3-({[(1E)-1,1′-biphenyl-4-ylmethylidene]amino}oxy)propoxy]-2-{[2-(trifluoromethyl)benzoyl]amino}benzoic Acid] | 
51% | 184.5 to 185.5 °C |  | O=C(Nc1cc(OCCCO/N=C/c2cc(C(F)(F)F)cc(C(F)(F)F)c2)ccc1C(=O)O)c1ccc(OC(F)(F)F)cc1 [Compound 28, 4-{3-[({(1E)-[3,5-Bis (trifluoromethyl)phenyl]methylidene}amino)oxy]propoxy}-2-{[4-(trifluoromethoxy)benzoyl]amino}benzoic Acid] | 
70% | 194.5 to 195.5 °C |  | O=C(Nc1cc(OCCCO/N=C/c2ccc(-c3ccccc3)cc2)ccc1C(=O)O)c1ccc(OC(F)(F)F)cc1 [Compound 29, 4-[3-({[(1E)-1,1′-Biphenyl-4-ylmethylidene]amino}oxy)propoxy]-2-{[4-(trifluoromethoxy)benzoyl]amino}benzoic Acid] | 
14% | 156 to 158 °C |  | CC(C)(C)c1ccc(/C=N/OCCCOc2ccc(C(=O)O)c(NC(=O)c3ccc4ccccc4c3)c2)cc1 [Compound 34, 4-[3-({[(1E)-(4-tert-Butylphenyl)methylidene]amino}oxy)propoxy]-2-(2-naphthoylamino)benzoic Acid] | 
16% | 169 to 171 °C |  | CC(C)(C)c1ccc(/C=N/OCCCOc2ccc(C(=O)O)c(NC(=O)/C=C/c3ccc(-c4ccccc4)cc3)c2)cc1 [Compound 35, 2-{[(2E)-3-(1,1′-Biphenyl-4-yl)prop-2-enoyl]amino}-4-[3-({[(1E)-(4-tert-butylphenyl)methylidene]amino}oxy)propoxy]-benzoic Acid] | 
23% | 155 to 158.5 °C |  | CC(C)(C)c1ccc(/C=N/OCCCOc2ccc(C(=O)O)c(NC(=O)c3ccc(-c4ccccc4)cc3)c2)cc1 [Compound 36, 2-[(1,1′-Biphenyl-4-ylcarbonyl)amino]-4-[3-({[(1E)-(4-tert-butylphenyl)methylidene]amino}oxy)propoxy]benzoic Acid] | 
